Assay results reported in ChEMBL document CHEMBL3988442, “University of Dundee, Small-Polar-MMV Screening Library” (2021).

Assays:
[1] = molecular target: Sialic acid-binding Ig-like lectin 9 (Homo sapiens, UniProt Q9Y336); experiment: Hs-Siglec9 ALPHAscreen SOP 20170721
Plasmodium falciparum = experiment: Calibr Malaria Delayed Death Assay SOP; format: functional, organism-based; conditions: for IC50: Plasmodium falciparum
[2] = In vitro enzyme assay to detect hydrolysis of chlorophenol red-beta-D-[…] directly proportional to the number of Toxoplasma stably expressing beta-galactosidase; format: functional, organism-based, Toxoplasma gondii; conditions: for IC50: Toxoplasma gondii
ClpP1P2 = ClpP1P2 (Mycobacterium tuberculosis (strain ATCC 25618 / H37Rv), UniProt P9WPC3+P9WPC5); experiment: in vitro assay to detect presence of AMC directly proportional to the activity of ClpP1P2. GHDDI collaboration.; format: functional
[3] = molecular target: T1, Coenzyme A biosynthesis bifunctional protein CoaBC (Mycobacterium tuberculosis (strain ATCC 25618 / H37Rv), UniProt P9WNZ1); experiment: Biomol Green assay for MtCoaBC inhibitor, OD650 read; format: functional
T1 sequence (P9WNZ1 whole entry): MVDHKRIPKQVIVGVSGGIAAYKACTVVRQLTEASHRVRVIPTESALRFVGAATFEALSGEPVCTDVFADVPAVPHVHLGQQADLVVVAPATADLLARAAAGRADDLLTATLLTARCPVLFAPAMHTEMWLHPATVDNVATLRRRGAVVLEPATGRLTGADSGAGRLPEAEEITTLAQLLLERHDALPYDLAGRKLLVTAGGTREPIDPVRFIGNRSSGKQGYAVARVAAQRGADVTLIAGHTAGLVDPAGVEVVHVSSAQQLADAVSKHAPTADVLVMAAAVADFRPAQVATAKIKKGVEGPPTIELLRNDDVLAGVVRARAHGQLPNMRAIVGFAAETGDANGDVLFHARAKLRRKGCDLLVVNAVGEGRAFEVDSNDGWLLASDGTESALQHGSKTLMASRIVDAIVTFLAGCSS

[4] = microbe, parasite or virus in culture; conditions: Mycobacterium tuberculosis, 72 h, read-out: pIC50 (converted)
[5] = microbe, parasite or virus in culture; conditions: Mycobacterium tuberculosis, 96 h, read-out: pIC50 (converted)

| Structure (SMILES) | IC50 [1] [µM] | also measured |
| --- | --- | --- |
| CN1CC2(CCN(Cc3ccoc3)CC2)COc2ccccc2S1(=O)=O.O=C(O)C(F)(F)F | > 30.2 | pIC50 (Plasmodium falciparum): 5.92; IC50 (Plasmodium falciparum): 0.906 µM |
| CCOCCCNC(=O)c1nnn(Cc2ccccc2)c1OC | > 30.2 | IC50 [2]: > 50.1 µM |
| COc1c(C(=O)NCC2CCCO2)nnn1Cc1ccccc1 (stereo not given) | > 30.2 | IC50 [2]: > 50.1 µM |
| COc1c(C(=O)NCC(C)C)nnn1Cc1ccccc1 | > 30.2 | IC50 [2]: > 50.1 µM |
| O=C(NCCc1nncn1C1CC1)c1cc2ccccn2c1 | > 30.2 | IC50 (ClpP1P2): > 100 µM |
| COCC1CN(Cc2ccsc2)Cc2cnn(C)c21 (stereo not given) | > 30.2 | IC50 [3]: > 30.2 µM |
| CC(C)N1CCCC(c2cc(C(F)(F)F)nc3nccn23)C1 (stereo not given) | > 30.2 | IC50 (ClpP1P2): > 100 µM |
| FC(F)(F)c1cc(C2CCCN(c3cnccn3)C2)n2ccnc2n1 (stereo not given) | > 30.2 | IC50 (ClpP1P2): > 100 µM |
| COc1c(C(=O)NCc2cccnc2)nnn1Cc1ccccc1 | > 30.2 | IC50 [2]: > 50.1 µM |
| COc1c(C(=O)NCc2cnn(C)c2C)nnn1Cc1ccccc1 | > 30.2 | IC50 [2]: > 50.1 µM |
| O=C1Nc2ccccc2CN(C/C=C/c2ccccc2)C12CCNC2 (stereo not given) | > 30.2 | pIC50 [2]: 4.701; IC50 [2]: 15 µM |
| O=C1Nc2ccccc2CN(CC2CCCC2)C12CCNC2 (stereo not given) | > 30.2 | IC50 [4]: 22.7 µM; IC50 [5]: > 50.1 µM |
| FC(F)(F)c1cc(C2CCN(c3cnccn3)CC2)n2ccnc2n1 | > 30.2 | IC50 (ClpP1P2): > 100 µM |
| COc1ccc(C(C)NCc2ccsc2)cc1Cn1cccn1 (stereo not given) | > 30.2 | pIC50 (Plasmodium falciparum): 6.257; IC50 (Plasmodium falciparum): 0.477 µM |
| CN1CC2(CCN(C(=O)C3CCC3)CC2)COc2ccccc2S1(=O)=O | > 30.2 | – |
| CCNC(=O)c1cc2n(n1)CCCO2 | > 30.2 | – |
| Nc1nccc(N2C[C@@H](CN3CCCCC3)[C@@H](CO)C2)n1 | > 30.2 | – |
| CCOC(=O)[C@H]1[C@@H](O)C(=O)N(C)C12CCN(C(=O)c1ccccc1)CC2 | > 30.2 | – |
| c1ccc([C@@H]2CN(Cc3cccnc3)C[C@H]2c2cc[nH]n2)cc1 | > 30.2 | – |
| O=C(NCCc1nncn1C1CC1)c1cnn(Cc2ccccc2)c1 | > 30.2 | – |
| Cc1occc1C(=O)N1C[C@H](Oc2ccccn2)[C@H]2OCCC[C@H]21 | > 30.2 | – |
| c1cnc(N2CCCC3(CCN(CC4CCOC4)CC3)C2)nc1 (stereo not given) | > 30.2 | – |
| Cc1ccnc(N2CCCC(c3nncn3C3CC3)C2)n1 (stereo not given) | > 30.2 | – |
| N#Cc1ccc2c(c1)CN(C(=O)c1nc[nH]n1)C2c1cnco1 (stereo not given) | > 30.2 | – |
| CCn1cnnc1C1CCN(C(=O)c2cc(C)n(CC)c2C)CC1 | > 30.2 | – |
| CCn1ncc2c1C(COC)CN(Cc1cccnc1)C2 (stereo not given) | > 30.2 | – |

| Structure (SMILES) | IC50 [1] [µM] | also measured |
| --- | --- | --- |
| CC(C)CCN1CCC2(CC1)NCc1ccccc1NC2=O | > 30.2 | – |
| CC(C)CCS(=O)(=O)N1CCCC(c2nncn2C(C)C)C1 (stereo not given) | > 30.2 | – |
| CCc1cc(C(=O)N2CCCC(c3cc(=O)nc4n3CCC4)C2)no1 (stereo not given) | > 30.2 | – |
| COC(=O)CC1CCN(C(=O)c2ccc(C)cc2)CC1 | > 30.2 | – |
| Cc1cc(S(=O)(=O)NC(C)(C)CN)c(F)cc1F | > 30.2 | – |
| CCn1nc(C)c(NC(=O)c2nnn(Cc3ccccc3)c2OC)c1C | > 30.2 | IC50 [2]: > 50.1 µM |
| c1ccc([C@@H]2CN(Cc3ccncc3)C[C@H]2c2cc[nH]n2)cc1 | > 30.2 | – |
| CCn1nnc2c1C(COC)CN(Cc1ccsc1)C2 (stereo not given) | > 30.2 | – |
| O=C(C1=CCCC1)N1CCO[C@H]2[C@@H](Oc3ccccn3)CC[C@@H]21 | > 30.2 | – |
| CCC(C(=O)NCc1csc(N2CCOCC2)n1)n1cccn1 (stereo not given) | > 30.2 | – |
| CC(=O)N[C@@H]1CN(c2nc(C(N)=O)cs2)C[C@H]1c1ccc(C)o1 | > 30.2 | – |
| CN(C)C(=O)COC[C@]12COC[C@H]1CN(Cc1ccco1)C2 | > 30.2 | – |
| O=C(NCC1(O)CCC1)c1cccc(-n2cccn2)c1 | > 30.2 | – |
| Cc1cc(C(=O)N2CCCS2(=O)=O)c(C)o1 | > 30.2 | – |
| COC(=O)C(O)C1CCN(CCc2ccccn2)CC1 (stereo not given) | > 30.2 | – |
| CCc1cc(N2CCC(N3CCSCC3)CC2)n2nccc2n1 | > 30.2 | – |
| O=C1Nc2ccccc2CN(CC2CC2)C12CCNC2 (stereo not given) | > 30.2 | – |
| COCC(=O)N1CCC2(CC1)COc1ccccc1S(=O)(=O)N(C)C2 | > 30.2 | – |
| CC(=O)NCC(=O)N1Cc2cc(C#N)ccc2C1c1cnco1 (stereo not given) | > 30.2 | – |
| Cc1cc(S(=O)(=O)NCC(C)(O)CN(C)C)c(F)cc1F (stereo not given) | > 30.2 | – |
| COCc1cc(N2CCN(C3CCCCC3)CC2)n2nccc2n1 | > 30.2 | – |
| CCC(=O)N1CCC2(CC1)COc1ccccc1S(=O)(=O)N(C)C2 | > 30.2 | – |
| CCOC(=O)[C@@H]1[C@@H](OC)C(=O)N(C)C12CCN(C(=O)C(CC)CC)CC2 | > 30.2 | – |
| Cc1nccc(N2C[C@@H](CN3CCCC3)[C@@H](CO)C2)n1 | > 30.2 | – |
| CS(=O)(=O)N1Cc2ccnn2CC(C(=O)NCc2cccnc2)C1 (stereo not given) | > 30.2 | – |
